Assay results taken from patent US9770430B2, “Desferrioxamine-metal complexes for the treatment of immune-related disorders” (priority 2009, dated 2017).

Columns and labels:
[1] = pH limit of the complex solution during preparation (loss of biological activities); assay type: physicochemical; conditions: pH above 6.1; solution reacts with air-containing CO2
[2] = test system: high energy diet-induced Type II diabetes; test: Sand rat high energy diet Type II diabetes model, body weight, blood glucose, glucose tolerance, cataract (Example 7); assay type: in vivo, sand rat (Psammomis obesus)
[3] = complex of desferrioxamine with the named metal ion; cited from earlier work
[4] = test system: high energy diet-induced Type II diabetes; test: Sand rat high energy diet Type II diabetes model, glucose tolerance test and cataract formation (Example 6); assay type: in vivo, sand rat (Psammomis obesus)
Description: Sand rats (Psammomis Obesus) were used as a model for Type 2 diabetes. The sand rats transferred onto high energy diet develop a severe form of Type 2 diabetes, including high blood glucose level, increase in body weight, and cataract development (eye lens opacification).
The sand rats were divided into groups. The animals from the Group I received the standard diet, serving as a control, whereas animals from the other indicated groups received high energy diet, leading to diabetes development. The high-energy diet ed mice were either untreated, or treated with intra-peritoneal injections of 2.5 mg/kg body weight Ga-DFO, Zn-DFO, DFO alone, Zn, Ga or lipoic acid (LA), either twice or three times per week, as indicated, for the duration of the experiment. The blood glucose and body weight of the animals were monitored throughout the experiment.
Forty two sand rats were divided into seven groups, six animals in each. The animals from Group I received the standard diet and used as a control. The animals from the Groups II, III, IV, V, VI and VII received high energy diet, leading to diabetes development, while Groups III, IV and VII were treated with Zn-DFO, Ga-DFO and DFO alone, respectively. The Groups V and VI received Zn and Ga, in their chloride salt form, alone respectively. Administration of the different treatments was as described, and the experiment lasted for 53 days. Glucose tolerance test was performed at the end of experiment. The cataract formation was tested as well.

Structure (SMILES): CC(=O)N(O)CCCCCNC(=O)CCC(=O)N([O-])CCCCCNC(=O)CCC(=O)N([O-])CCCCCN.[Zn+2] [Zn-DFO, Zinc-desferrioxamine]
- effect of higher pH on the Zn-DFO solution [1]: marked loss of the biological activities
- blood glucose value ([2]; day 28, high energy diet, 2.5 mg/kg i.p. three times a week): 200 mg/dL
- body weight gain ([2]; high energy diet, 2.5 mg/kg i.p. three times a week, 63 days): gained weight moderately
- blood glucose value ([2]; toward the end of experiment, high energy diet, 2.5 mg/kg i.p. three times a week): 110 mg/dL
- animals that did not develop cataract ([2]; treated group (Group III)): four
- animals with grade 1-2 cataract in both eyes ([2]; treated group (Group III)): Two
- animals with severe (grade 3) cataract ([2]; treated group (Group III)): one
- glucose tolerance test, integration of total glucose levels ([2]; versus Group I (standard diet)): insignificantly higher value than Group I
- relative stability constants for the complexes of desferrioxamine [3]: 10^11
- three hours response to an orally-administered glucose dose, value above the zero (standard diet Group I) ([4]; 200 mg glucose per 100 g body weight, end of 53 day experiment, high energy diet): 20 mg/dL
- Cataract formation ([4]; high energy diet (HE) sand rats, 53 days): 22%
